Test results from patent publication US8765433B2, “Alcohol dehydrogenases (ADH) useful for fermentive production of lower alkyl alcohols” (priority 2009, dated 2014).

Tests used:
Format in all cases: biochemical
[1] = test system: Achromobacter xylosoxidans SadB (SadB), SEQ ID NO: 26; experiment: isobutanol oxidation kinetics; details: 30° C., pH 8.8, 7.5 mM NAD
Description: (§1) As a routine practice, the crude extracts and purified proteins were assayed for butanol oxidation activity, in order to ensure that the recombinant proteins were active throughout the purification process. […] Alcohol oxidation activities were carried out in 50 mM sodium phosphate buffer at pH 8.8 and aldehyde reduction reactions were assayed in 190 mM potassium phosphate buffer at pH 7.0. Depending on the nature of reaction being carried out, the enzyme and cofactor stocks were diluted in the reaction buffers at the respective pHs. Either buffer or cell extract prepared from the proprietary E. coli strain (with no ADH plasmid) was used as the negative control for assays with purified protein and cell-free extracts, respectively.
(§2) Kinetic constants of the ADH enzymes were calculated and compared to identify those candidate ADH enzymes with the most desirable properties for the conversion of isobutyraldehyde to isobutanol in the last step of the engineered pathway for isobutanol production. The assays for determining the kinetic constants were carried out using initial rates from the assays described above. […] The concentration of a given enzyme was such that it was conducive for the measurement of initial velocities over a 1-min time course. For each enzyme, Michaelis-Menten plots were generated with a broad range of substrate concentrations. Rough estimates of KM were obtained, based on which the assays were redesigned so as to use substrate concentrations in the range 0.5 to 10 times the KM value, to be able to obtain the appropriate kinetic constants. […] When calculating the KI for isobutanol, the same reactions were carried out in the presence of varying concentrations of isobutanol (generally 0-535 mM) in the reaction (see FIG. 7, for example). Reactions with isobutanol substrate were performed at 30° C. in 50 mM Sodium phosphate buffer, pH 8.8, containing 7.5 mM NAD. The Enzyme kinetics module (Version 1.3) of SigmaPlot 11 (Systat Software, Inc.) was used to fit data to Michaelis-Menten equations and calculate the kinetic constants. The kcat/KM is derived from the individual numbers of kcat and KM and not an experimentally determined value. The ratios of the KM, KI, and kcat/KM for each candidate enzyme as compared to the same parameter for SadB are given in Table 9.
(§3) For those enzymes marked with an asterisk in Table 7, at least 3 assays were performed with separate preparations of the enzyme. All other numbers are values from either one assay or are averages from 2 assays performed with the same enzyme sample.

[2] = molecular target: T1, Beijerinckia indica subsp. Indica ATCC 9039 ADH (BiADH), SEQ ID NO: 31 (Beijerinckia indica, UniProt B2IGW3); experiment: isobutanol oxidation kinetics; details: 30° C., pH 8.8, 7.5 mM NAD
T1 sequence (B2IGW3 1-347): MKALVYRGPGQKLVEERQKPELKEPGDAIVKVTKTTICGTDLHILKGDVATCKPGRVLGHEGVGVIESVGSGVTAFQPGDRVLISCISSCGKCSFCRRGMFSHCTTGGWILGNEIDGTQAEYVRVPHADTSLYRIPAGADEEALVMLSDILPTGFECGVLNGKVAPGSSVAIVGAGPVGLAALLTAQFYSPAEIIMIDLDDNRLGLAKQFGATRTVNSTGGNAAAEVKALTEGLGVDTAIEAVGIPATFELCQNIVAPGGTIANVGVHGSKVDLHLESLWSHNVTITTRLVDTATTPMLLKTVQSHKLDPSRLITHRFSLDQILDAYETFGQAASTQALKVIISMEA
Description: as §1, §2, §3

[3] = molecular target: T2, horse liver ADH (HLADH), SEQ ID NO: 21 (Equus caballus, UniProt P00327); experiment: isobutanol oxidation kinetics; details: 30° C., pH 8.8, 7.5 mM NAD
T2 construct: purchased Sigma A-6128
Description: as §1, §2, §3

[4] = molecular target: T3, Clostridium beijerinckii ADH (CbADH), SEQ ID NO: 29 (Clostridium beijerinckii, UniProt P25984); experiment: isobutyraldehyde reduction kinetics (A340, initial rates); details: relative to SadB
T3 construct: hexa-histidine (pBADHisA) (N); made in house; host or cells: E. coli (BL21-CodonPlus or a proprietary E. coli strain)
T3 sequence (P25984 1-351): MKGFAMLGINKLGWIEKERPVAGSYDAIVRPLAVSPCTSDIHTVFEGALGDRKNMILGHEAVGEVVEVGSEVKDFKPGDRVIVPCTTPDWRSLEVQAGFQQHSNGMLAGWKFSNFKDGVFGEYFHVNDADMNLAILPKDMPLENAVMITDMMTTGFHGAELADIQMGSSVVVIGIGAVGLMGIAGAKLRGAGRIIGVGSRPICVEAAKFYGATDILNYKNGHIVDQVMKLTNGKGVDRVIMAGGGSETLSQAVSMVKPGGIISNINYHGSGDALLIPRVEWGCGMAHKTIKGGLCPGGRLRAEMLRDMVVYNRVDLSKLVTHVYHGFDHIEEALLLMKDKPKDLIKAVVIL

T2 sequence (P00327 whole entry): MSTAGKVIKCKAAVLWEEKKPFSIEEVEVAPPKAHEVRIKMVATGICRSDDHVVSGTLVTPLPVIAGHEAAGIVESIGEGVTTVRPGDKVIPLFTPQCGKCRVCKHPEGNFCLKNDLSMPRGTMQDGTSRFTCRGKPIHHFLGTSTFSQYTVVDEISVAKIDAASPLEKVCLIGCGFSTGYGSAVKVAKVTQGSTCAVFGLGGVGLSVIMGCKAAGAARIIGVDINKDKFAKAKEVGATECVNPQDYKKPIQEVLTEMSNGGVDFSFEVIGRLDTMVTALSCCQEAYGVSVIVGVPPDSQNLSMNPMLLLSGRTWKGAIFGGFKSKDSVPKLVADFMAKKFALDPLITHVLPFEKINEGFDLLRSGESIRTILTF

CC(C)CO [isobutanol, 2-methylpropan-1-ol]
Km [1]: 24 mM
kcat (isobutanol oxidation) [1]: [Isobutanol oxidation: kcat = 2 sec^−1;
kcat (isobutanol oxidation) [2]: [Isobutanol oxidation: kcat = 9 sec^−1;
kcat (isobutanol oxidation) [3]: [Isobutanol oxidation: kcat = 5 sec^−1;

CC(C)C=O [isobutyraldehyde]
KM as a percentage of the same parameter for SadB [4]: 150%
kcat as a percentage of the same parameter for SadB [4]: 113%
kcat/KM as a percentage of the same parameter for SadB [4]: 81%
